Test results: US6653081B2, “Methods for monitoring antiretroviral therapy and guiding therapeutic decision in the treatment of HIV/AIDS” (ViroLogic, Inc., priority 2000, dated 2003)
“Also recorded” adds a separate entry of the source.

Columns and labels:
[1] = test system: RTV-V245T; assay: Phenotypic susceptibility assay, RTV-V245T; format: cell-based, HIV-1; conditions: site-directed V245T alone
Source text: (§1) The resistance test vectors containing a functional luciferase gene cassette were constructed and host cells were transfected with the resistance test vector DNA. The resistant test vectors contained patient-derived reverse transcriptase and protease sequences that were either susceptible or resistant to the antiretroviral agents, such as nucleoside reverse transcriptase inhibitors, (NRTIs) non-nucleoside reverse transcriptase inhibitors […] protease inhibitors. The resistance test vector viral particles produced by transfecting the resistance test vector DNA into host cells, either in the presence or absence of PRIs, were used to infect target host cells grown either in the absence of NRTIs or NNRTIs, or in the presence of increasing concentrations of the drug. The amount of luciferase activity produced in infected target host cells in the presence of varying concentrations of drug was compared to the amount of luciferase produced in infected target host cells in the absence of drug. “Drug resistance” was measured as the amount of drug required to inhibit by 50% the luciferase activity detected in the absence of drug (inhibitory concentration 50%, IC50). The IC50 values were determined by plotting percent drug inhibition vs. log10 drug concentration. Stimulation of viral replication was measured as the percent increase in luciferase activity detected when infection occurs in the presence of drug as compared to in the absence of drug.
(§2) Host cells were seeded in 10-cm-diameter dishes and were transfected several days after plating with resistance test vector plasmid DNA and the envelope expression vector. Transfections were performed using a calcium-phosphate precipitation procedure. The cell culture media containing the DNA precipitate was replaced with fresh medium, from one to 24 hours, after transfection. Cell culture media containing resistance test vector viral particles was harvested one to four days after transfection and was passed through a […] filter before being used to infect target host cells, or being stored at −80° C. HIV capsid protein (p24) levels in the harvested cell culture media were determined by an EIA method as described by the manufacturer (SAIC; Frederick, Md.). Before infection, target cells (293 and 293/T) were plated in cell culture media. Control infections were performed using cell culture media from mock transfections (no DNA) or transfections containing the resistance test vector plasmid DNA without the envelope expression plasmid. One to three or more days after infection, the media was removed and cell lysis buffer (Promega) was added to each well. Cell lysates were assayed for luciferase activity (FIG. 3). The inhibitory effect of the drug was determined using the following equation:
(§3) % luciferase inhibition=1−(RLUluc[drug]÷RLUluc)×100
(§4) where RLUluc [drug] is the Relative Light Unit of luciferase activity in infected cells in the presence of drug, and RLUluc is the Relative Light Unit of luciferase activity in infected cells in the absence of drug. IC50values were obtained from the sigmoidal curves that were generated from the data by plotting the percent inhibition of luciferase activity vs. the log10 drug concentration. The percent luciferase stimulation is the negative of the % inhibition calculated using the formula above.
A resistance test vector containing a single mutation, V245T, (RTV-V245T) was constructed and tested in the phenotypic assay described earlier. The results were compared to those determined using a genetically defined resistance test vector that was wild type at position 245. We determined the pattern of phenotypic susceptibility to the NNRTIs, delavirdine, nevirapine and efavirenz, in […].

[2] = test system: RTV-309; assay: Phenotypic susceptibility assay, RTV-309; format: cell-based, HIV; conditions: patient 1033 sample before any NNRTI
Source text: (§5) The resistance test vectors containing a functional luciferase gene cassette were constructed and host cells were transfected with the resistance test vector DNA. The resistant test vectors contained patient-derived reverse transcriptase and protease sequences that were either susceptible or resistant to the antiretroviral agents, such as nucleoside reverse transcriptase inhibitors, (NRTIs) non-nucleoside reverse transcriptase inhibitors […] protease inhibitors. The resistance test vector viral particles produced by transfecting the resistance test vector DNA into host cells, either in the presence or absence of PRIs, were used to infect target host cells grown either in the absence of NRTIs or NNRTIs, or in the presence of increasing concentrations of the drug. The amount of luciferase activity produced in infected target host cells in the presence of varying concentrations of drug was compared to the amount of luciferase produced in infected target host cells in the absence of drug. […] The IC50 values were determined by plotting percent drug inhibition vs. log10 drug concentration. Stimulation of viral replication was measured as the percent increase in luciferase activity detected when infection occurs in the presence of drug as compared to in the absence of drug.
(§6) Host cells were seeded in 10-cm-diameter dishes and were transfected several days after plating with resistance test vector plasmid DNA and the envelope expression vector. […] HIV capsid protein (p24) levels in the harvested cell culture media were determined by an EIA method as described by the manufacturer (SAIC; Frederick, Md.). […] The inhibitory effect of the drug was determined using the following equation: […]
(§7) where RLUluc [drug] is the Relative Light Unit of luciferase activity in infected cells in the presence of drug, and RLUluc is the Relative Light Unit of luciferase activity in infected cells in the absence of drug. […] The percent luciferase stimulation is the negative of the % inhibition calculated using the formula above. […]

[3] = test system: RTV-013522/270I; assay: Phenotypic susceptibility assay, RTV-013522/270I; format: cell-based, HIV; conditions: RTV-013522 with I270S reverted
Source text: as §1, §2, §3, §4
A resistance test vector containing all of the mutations present in […] except for the I270S (RTV-013522/270I) was constructed and tested using the phenotypic assay described earlier. The results were compared to those determined using the parent RTV-013522. We determined the pattern of phenotypic susceptibility to the NNRTIs, delavirdine, nevirapine and efavirenz, in the reverted vector RTV-013522/270I. […] In this patient sample the correlation of drug-dependent stimulation of viral replication with the mutation at I270S is very striking. […]

[4] = test system: RTV-1033, RTV-008973, RTV-757, RTV-008980 and RTV-1080; assay: Phenotypic susceptibility assay, patient 1033 RTV pools; format: cell-based, HIV; conditions: range over five RTV pools of one patient
Source text: as §1, §2, §3, §4
Resistance test vectors were constructed as described in Example 1 from virus samples obtained from an individual patient at thirteen separate time points over a 2½-year period. This patient had been previously treated with two NRTIs (zidovudine and lamivudine) AZT, 3TC (NRTIS), and a PRI (indinavir) for a period of approximately 2 years at the time the first (97-309) and second (98-754) samples were obtained. The patient began taking a new anti-viral regimen including an NRTI (stavudine), an NNRTI (nevirapine), and two PRIs (nelfinavir and saquinavir) at the time the third sample (98-1032) was obtained. […]

[5] = test system: RTV-309-3; assay: Phenotypic susceptibility assay, RTV-309-3; format: cell-based, HIV; conditions: single clone from the RTV-309 pool
Source text: as §5, §6, §7

[6] = test system: RTV-005738; assay: Phenotypic susceptibility assay, RTV-005738; format: cell-based, HIV; conditions: patient 005738; for decrease in susceptibility: V245E with multiple other mutations
Source text: as §1, §2, §3, §4
A resistance test vector was constructed as described in Example 1 from a virus sample obtained from patient 005738. The prior and current treatment regimens are unknown. Isolation of viral RNA and RT/PCR was used to generate a patient derived segment (PDS) that comprised viral sequences coding for all of PR and aa 1-313 of RT […]. The PDS were inserted into an indicator gene viral vector to generate a resistance test vector designated RTV-005738. RTV-005738 was then tested in a phenotypic assay to determine accurately and quantitatively the level of susceptibility to a panel of anti-retroviral drugs. […]

[7] = test system: RTV-1033-3/106V/227F/286T; assay: Phenotypic susceptibility assay, RTV-1033-3/106V/227F/286T; format: cell-based, HIV; conditions: RTV-1033-3 with V106A, F227L and T286A reverted
Source text: as §1, §2, §3, §4
A resistance test vector containing all of the mutations present in RTV-1033-3 except for V106A, F227L and T286A (RTV-1033-3/106V/227F/286T) was constructed and tested using the phenotypic assay described earlier. The results were compared to those determined using the parent RTV-1033-3. We determined the pattern of phenotypic susceptibility to the NNRTIs, delavirdine, nevirapine and efavirenz, in the reverted vector, RTV-1033-3/106V/227F/286T.

CC(C)Nc1cccnc1N1CCN(C(=O)c2cc3cc(NS(C)(=O)=O)ccc3[nH]2)CC1 [delavirdine]
drug-dependent stimulation of viral replication [1]: no drug-dependent stimulation
reductions in susceptibility compared to wild type control RTV [1]: no reductions; also recorded: no significant reduction
reduction in susceptibility [2]: wild type pattern of susceptibility
drug-dependent stimulation of viral replication [3]: no longer exhibiting negative inhibition
reductions in susceptibility compared to wild type control RTV [3]: 40 fold
drug-dependent stimulation of viral replication [4]: 20 to 180%
reductions in susceptibility [4]: 3 to 18 fold
reduction in susceptibility [5]: wild type pattern of susceptibility
drug-dependent stimulation of viral replication [6]: ~40%
decrease in susceptibility [6]: 63 fold
drug-dependent stimulation of viral replication [7]: ~60%
reductions in susceptibility compared to wild type control RTV [7]: 3 fold

O=C1Nc2ccc(Cl)cc2[C@@](C#CC2CC2)(C(F)(F)F)O1 [efavirenz]
drug-dependent stimulation of viral replication [1]: no drug-dependent stimulation
reductions in susceptibility compared to wild type control RTV [1]: no reductions; also recorded: no significant reduction
reduction in susceptibility [2]: wild type pattern of susceptibility
drug-dependent stimulation of viral replication [3]: no longer exhibiting negative inhibition
reductions in susceptibility compared to wild type control RTV [3]: 8 fold
drug-dependent stimulation of viral replication [4]: 30 to 170%
reductions in susceptibility [4]: 16 to 300 fold
reduction in susceptibility [5]: wild type pattern of susceptibility
drug-dependent stimulation of viral replication [6]: ~20%
decrease in susceptibility [6]: 17 fold
drug-dependent stimulation of viral replication [7]: ~50%
reductions in susceptibility compared to wild type control RTV [7]: 5 fold

Cc1ccnc2c1NC(=O)c1cccnc1N2C1CC1 [nevirapine]
drug-dependent stimulation of viral replication [1]: no drug-dependent stimulation
reductions in susceptibility compared to wild type control RTV [1]: no reductions; also recorded: no significant reduction
reduction in susceptibility [2]: 3 fold
drug-dependent stimulation of viral replication [3]: no longer exhibiting negative inhibition
reductions in susceptibility compared to wild type control RTV [3]: 14 fold
drug-dependent stimulation of viral replication [4]: 40 to 250%
reductions in susceptibility [4]: > 600 fold
reduction in susceptibility [5]: 3 fold
drug-dependent stimulation of viral replication [6]: ~20%
decrease in susceptibility [6]: > 600 fold
drug-dependent stimulation of viral replication [7]: ~70%
reductions in susceptibility compared to wild type control RTV [7]: 6 fold
